Read-outs that look alike come from different tables or passages of the source.
How the values were obtained:
[1] = pH measurements before and after the contact angle experiments with calcite; assay type: physicochemical; conditions: room temperature; for pH After: after contact angle experiment with calcite; for pH Before: before contact angle experiment
Method: RB was made first by adding salts and adjusting the total mass of the solution to 1 kg with deionized water. […] For solutions with HCl, HCl was added to solutions of formate and acetate at room temperature while stirring slowly. […] After aqueous solutions were prepared and degassed, they were placed in an oven at the desired reservoir temperature (347 K for calcite and 337 for Eagle Ford shale).

[2] = with RB at reservoir and room temperatures
[3] = 347 K
Method: Contact Angle Experiments. Contact angle experiments were performed on calcite surfaces and Eagle Ford shale plates. […] After cutting the plates in the appropriate sizes, they were polished with a diamond grinder to result in a smooth surface. […] The pH values of the chemical solutions were measured before and after the experiment. […] The final pH level was adjusted to correspond to the glycine solution at the same concentration. […] Then, to start the experiment, the rock pieces were immersed in the solution and then oil droplets were placed at the bottom of the rock pieces. The solution chambers were put in the oven for equilibration. Then, images of the oil droplets were taken. A new oil droplet was placed after a certain number of days and the images were taken after equilibration. Contact angles reported in figures are the equilibrium contact angles. For example, if data is reported from day 7, that data is the final equilibrated contact angle of the droplet placed on day 7. Contact angles were measured from photos with the on-screen protractor software.

[4] = 337 K
Method: Contact Angle Experiments. Contact angle experiments were performed on calcite surfaces and Eagle Ford shale plates. […] After cutting the plates in the appropriate sizes, they were polished with a diamond grinder to result in a smooth surface.
RB was made first by adding salts and adjusting the total mass of the solution to 1 kg with deionized water. […] The final pH level was adjusted to correspond to the glycine solution at the same concentration. […]
After being aged in heavy oil for at least 3 weeks, the calcite or shale pieces were retrieved, and the excess oil was removed from the surfaces carefully. Then, to start the experiment, the rock pieces were immersed in the solution and then oil droplets were placed at the bottom of the rock pieces. The solution chambers were put in the oven for equilibration. Then, images of the oil droplets were taken. A new oil droplet was placed after a certain number of days and the images were taken after equilibration. Contact angles reported in figures are the equilibrium contact angles. For example, if data is reported from day 7, that data is the final equilibrated contact angle of the droplet placed on day 7. Contact angles were measured from photos with the on-screen protractor software.
A similar procedure was followed for another set of experiments with Eagle Ford shale plates.

[5] = room temperature; cited from earlier work
[6] = Viscosity and density of formate solutions in NaCl+CaCl2 brine; assay type: physicochemical; conditions: solutions in the brine at 25, 50 and 75 °C over a wide range of shear rates
Method: Viscosity Measurements. […] A double wall couette geometry was used for the measurement. The viscosity measurements were taken at 25, 50, and 75° C. The sodium formate solutions were prepared and allowed to equilibrate in an oven set at the target temperature.
For viscosity measurements at 50 and 75° C., the temperature of the holding cup was raised to the target temperature using the circulating bath before putting the solution into the rheometer's sample holding cup.

[7] = near-saturated 45% (% w/w) sodium formate in water, 20 °C; cited from earlier work

Compound | pH After ([1]; 0.5 wt % in RB) | pH Before ([1]; 0.5 wt % in RB) | pH After ([1]; 1 wt % in RB) | pH Before ([1]; 1 wt % in RB) | pH After ([1]; 2.5 wt % in RB) | pH Before ([1]; 2.5 wt % in RB) | pH After ([1]; 5 wt % in RB) | pH Before ([1]; 5 wt % in RB) | aqueous stability [2] | contact angle reduction on calcite ([3]; without HCl, in RB) | final contact angle on Eagle Ford shale plates ([4]; 5 wt % in RB with HCl) | final contact angle on Eagle Ford shale plates ([4]; 5 wt % in RB without HCl) | contact angle on calcite ([3]; with HCl (pH adjusted to glycine level), in RB) | contact angle on calcite ([3]; without HCl, 0.5-5 wt % in RB) | contact angle on calcite ([3]; 2.5 and 5 wt % in RB, reached over time) [°] | isoelectric point (pI) [5] | rheological behavior [6] | reported viscosity [7] [cp]
CC(=O)[O-].[Na+] [acetate, Sodium Acetate] | 8.04 | 8.15 | 7.89 | 8.31 | 7.87 | 8.44 | 7.85 | 8.64 | confirmed | did not significantly reduce the contact angle | approximately 60 ° | about 80 ° |  |  |  |  |  | 
O=CO [formate] | 8.26 | 8.07 | 8.22 | 7.96 | 8.05 | 8.12 | 7.96 | 8.11 | confirmed |  | approximately 60 ° | about 80 ° | 50-60 ° | approximately 80 ° |  |  |  | 
NCC(=O)O [glycine, reference compound] | 7.94 | 6.68 | 7.73 | 6.42 | 7.53 | 6.24 | 7.62 | 6.10 |  |  |  | 60 ° |  |  | ~40 | 5.97 |  | 
O=C[O-].[Na+] [sodium formate] |  |  |  |  |  |  |  |  |  |  |  |  |  |  |  |  | Newtonian behavior | 9.5
